target: T1, Prostaglandin G/H synthase 1 (Ovis aries, UniProt P05979); assay: Inhibition of Ovis aries (sheep) cyclooxygenase-1 using arachidonic acid as substrate by chemiluminescent assay
T1 sequence (P05979 whole entry): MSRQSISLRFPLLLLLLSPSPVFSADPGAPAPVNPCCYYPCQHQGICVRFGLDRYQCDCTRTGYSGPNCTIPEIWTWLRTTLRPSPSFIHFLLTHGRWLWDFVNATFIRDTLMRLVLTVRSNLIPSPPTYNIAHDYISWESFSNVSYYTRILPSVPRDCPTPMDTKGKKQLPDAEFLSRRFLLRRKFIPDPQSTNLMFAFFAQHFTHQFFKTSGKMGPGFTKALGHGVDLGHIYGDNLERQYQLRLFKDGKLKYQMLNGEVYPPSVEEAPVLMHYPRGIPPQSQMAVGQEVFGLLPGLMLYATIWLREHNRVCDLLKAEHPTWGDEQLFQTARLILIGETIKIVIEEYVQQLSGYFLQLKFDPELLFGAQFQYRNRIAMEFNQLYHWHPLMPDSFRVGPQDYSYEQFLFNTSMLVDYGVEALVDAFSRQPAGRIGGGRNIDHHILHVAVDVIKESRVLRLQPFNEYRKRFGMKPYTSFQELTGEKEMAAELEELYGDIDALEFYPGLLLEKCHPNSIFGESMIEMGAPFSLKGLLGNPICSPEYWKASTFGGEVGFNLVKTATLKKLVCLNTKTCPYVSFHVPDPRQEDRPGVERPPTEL

Structure (SMILES)	IC50
CC(C)N1C(=O)[C@@H](Oc2ccccc2)[C@H]1c1ccc(S(C)(=O)=O)cc1 (relative stereo)	21.8 µM
COc1ccc(N2C(=O)[C@@H](Oc3ccccc3)[C@H]2c2ccc(S(C)(=O)=O)cc2)cc1 (relative stereo)	19.2 µM
CCCN1C(=O)[C@@H](Oc2ccccc2)[C@H]1c1ccc(S(C)(=O)=O)cc1 (relative stereo)	21.7 µM
Cc1ccc(N2C(=O)[C@@H](Oc3ccccc3)[C@H]2c2ccc(S(C)(=O)=O)cc2)cc1 (relative stereo)	18.1 µM
CS(=O)(=O)c1ccc([C@@H]2[C@H](Oc3ccccc3)C(=O)N2c2ccc(Cl)cc2)cc1 (relative stereo)	18.3 µM
CS(=O)(=O)c1ccc([C@@H]2[C@H](Oc3ccccc3)C(=O)N2c2ccc(F)cc2)cc1 (relative stereo)	19 µM
CS(=O)(=O)c1ccc([C@@H]2[C@H](Oc3ccccc3)C(=O)N2c2ccccc2)cc1 (relative stereo)	19.9 µM
CCCCCN1C(=O)[C@@H](Oc2ccccc2)[C@H]1c1ccc(S(C)(=O)=O)cc1 (relative stereo)	21.2 µM
CCCCN1C(=O)[C@@H](Oc2ccccc2)[C@H]1c1ccc(S(C)(=O)=O)cc1 (relative stereo)	20.9 µM
CS(=O)(=O)c1ccc([C@@H]2[C@H](Oc3ccccc3)C(=O)N2C2CCCCC2)cc1 (relative stereo)	19.5 µM

From ChEMBL document CHEMBL3046312, “Synthesis and biologic evaluation of new 3-phenoxyazetidin-2-one derivatives as selective cyclooxygenase-2 inhibitors” (Med Chem Res, 2013)
